Here are results for 21 molecules from US6281355A, “Nitrogen-containing tetracyclic compounds” (Taisho Pharmaceutical Co., Ltd., priority 1997, dated 2001).

This experiment concerns the target T1, mitochondrial diazepam binding inhibitor receptor (MDR) (Rattus norvegicus, UniProt P16257).
T1 construct: Crude mitochondria fractions prepared from rat cerebral cortex were used as a receptor sample; from tissue; host or cells: rat cerebral cortex, crude mitochondria fraction
As to the kind of experiment: MDR Receptor Binding Assay ([3H]PK11195 binding to crude mitochondria fraction of rat cerebral cortex). Particulars: inhibition of [3H]PK11195 (2 nM) binding; rat cerebral cortex crude mitochondria 1.0 mg protein/ml; 4° C., 90 minutes; non-specific: 10 μM PK11195. As for the experimental part:
Experiment [MDR Receptor Binding Assay]
Crude mitochondria fractions prepared from rat cerebral cortex were used as a receptor sample, and [^3 H]PK11195 was used as a [^3 H]-labeled ligand.
A binding assay using the [^3 H]-labeled ligand was carried out according to the following method as described in Journal of Pharmacology and Experimental Therapeutics, 262, 971(1992).
Preparation of Receptor Sample: Rat cerebral cortex was homogenized using a Teflon-coated homogenizer in a 10 mM HEPES buffer (pH 7.4) containing 0.32 M sucrose in ten volumes of the wet weight. The homogenate was centrifuged at 900× g for 10 minutes, and the resulting supernatant was centrifuged at 9,000× g for 10 minutes. The precipitate was suspended in a HEPES buffer to give a protein concentration of 1 mg/ml, and centrifuged at 12,000× g for 10 minutes. The resulting precipitate was suspended in a 50 mM HEPES buffer (pH 7.4) to give a crude mitochondria fraction.
MDR Binding Assay: Mitochondria sample (1.0 mg protein/ml), [^3 H]PK11195 (2 nM) and the test drug were reacted at 4° C. for 90 minutes.
After completion of the reaction, the reaction mixture was filtered with suction through a glass filter (GF/B) treated with 0.3% polyethyleneimine,and the radioactivity on the filter was measured by a liquid scintillation spectrometer.
The binding at the reaction in the presence of 10 μM PK11195 was defined as non-specific binding of [^3 H]PK11195, and the difference between total binding and non-specific binding was defined as specific binding.

T1 sequence (P16257 whole entry): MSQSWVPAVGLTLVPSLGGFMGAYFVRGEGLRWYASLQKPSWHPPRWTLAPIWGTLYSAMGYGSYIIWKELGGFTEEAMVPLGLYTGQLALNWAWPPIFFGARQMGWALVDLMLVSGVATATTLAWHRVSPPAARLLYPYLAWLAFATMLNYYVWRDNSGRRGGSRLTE

Broadly, the IC50 is the concentration needed to halve the response being measured. Low values mean higher potency, high ones lower potency. Molecule `CCCCCCN(CCCCCC)C(=O)C1c2c([nH]c3ccccc23)-c2ccccc2N1C=O` (stereo not drawn) [Compound 27] showed an IC50 of 35.1 nM.

For the molecule `CCCCCCN(CCCCCC)C(=O)C1c2c([nH]c3ccccc23)-c2ccccc2S1(=O)=O` (stereo not drawn) [Compound 22], the IC50 turned out to be 1.23 nM.

`COCCN(CCOC)C(=O)C1Sc2ccccc2-c2[nH]c3ccccc3c21` (stereo not drawn) [Compound 15] had an IC50 of 4.98 nM.

In turn, `CCCCCCN(CCCCCC)C(=O)C1Sc2ccccc2-c2[nH]c3ccccc3c21` (racemic) [Compound 06, N,N-Dihexyl-6,11-dihydro-5-thia-11-aza-benzo[a]fluoren-6-carboxamide] yielded an IC50 of 3.76 nM.

With `CCCCCCN(CCCCCC)C(=O)C1Sc2ccccc2-c2[nH]c3ccccc3c21` (single isomer, unassigned; (+)) [Compound 08, (+)-N,N-Dihexyl-6,11-dihydro-5-thia-11-aza-benzo[a]fluoren-6-carboxamide], the IC50 is 2.15 nM.

Molecule `CCCN(CCC)C(=O)C1Sc2ccccc2-c2[nH]c3ccccc3c21` (stereo not drawn) [Compound 05, N,N-dipropyl-6,11-dihydro-5-thia-11-aza-benzo[a]fluoren-6-carboxamide] had an IC50 of 0.368 nM.

Turning to `CCCN(CCC)C(=O)C1Cc2ccccc2-c2nc3ccccc3n21` (stereo not drawn) [Compound 25], the IC50 was 73.9 nM.

Regarding `CCCCCCN(CCCCCC)C(=O)C1Sc2ccccc2-c2[nH]c3ccccc3c21` (single isomer, unassigned; (-)) [Compound 07, (-)-N,N-Dihexyl-6,11-dihydro-5-thia-11-aza-benzo[a]fluoren-6-carboxamide], the IC50 was found to be 42.3 nM.

The molecule `CCCCCCN(CCCCCC)C(=O)C1Sc2ccccc2-c2[nH]c3ccc(C)cc3c21` (stereo not drawn) [Compound 11] gave an IC50 of 13.9 nM.

As to `CCCCCCN(CCCCCC)C(=O)C1c2c([nH]c3ccccc23)-c2ccccc2N1C(C)=O` (stereo not drawn) [Compound 28], the IC50 amounted to 12.6 nM.

For the molecule `CCCCCCN(CCCCCC)C(=O)C1Sc2ccccc2-c2[nH]c3ccc(Cl)cc3c21` (stereo not drawn) [Compound 10], the IC50 worked out at 20.1 nM.

In the case of `CCCCCCN(CCCCCC)C(=O)C1Sc2ccccc2-c2[nH]c3c(F)cc(F)cc3c21` (stereo not drawn) [Compound 12], the IC50 amounted to 22.1 nM.

Molecule `CCCN(CCC)C(=O)C1c2c([nH]c3ccccc23)-c2ccccc2S1(=O)=O` (stereo not drawn) [Compound 21, N,N-dipropyl-6,11-dihydro-5-thia-11-aza-benzo[a]fluoren-6-carboxamide 5,5-dioxide] showed an IC50 of 1.12 nM.

`CCCCCCN(CCCCCC)C(=O)C1Cc2ccccc2-c2nc3ccccc3n21` (stereo not drawn) [Compound 26, N,N-dihexyl-5,6-dihydro-benzo[4,5]imidazo[2,1-a]isoquinoline-6-carboxamide] returned an IC50 of 42.3 nM.

Turning to `CCCCCCN(CCCCCC)C(=O)C1Cc2ccccc2-c2[nH]c3ccccc3c21` (stereo not drawn) [Compound 23], the IC50 was found to be 1.35 nM.

Turning to `CCCCCCN(CCOCCC)C(=O)C1Sc2ccccc2-c2[nH]c3ccccc3c21` (stereo not drawn) [Compound 14], the IC50 was 1.35 nM.

Turning to `CCCCCCN(CCCCCC)C(=O)C1Sc2ccccc2-c2[nH]c3ccc(F)cc3c21` (stereo not drawn) [Compound 09], the IC50 was found to be 13.8 nM.

Molecule `CN(C)C(=O)C1Sc2ccccc2-c2[nH]c3ccccc3c21` (stereo not drawn) [Compound 03] registered an IC50 of 38.5 nM.

Consider `CCN(CC)C(=O)C1Sc2ccccc2-c2[nH]c3ccccc3c21` (stereo not drawn) [Compound 04], for which the IC50 came out at 0.443 nM.

In turn, `CCCCCCN(CCCCCC)C(=O)C1Sc2ccccc2-c2c1c1ccccc1n2C` (stereo not drawn) [Compound 16, N,N-Dihexyl-6,11-dihydro-11-methyl-5-thia-11-aza-benzo[a]fluoren-6-carboxamide] came in with a concentration for half-maximal inhibition (IC50) of 1.35 nM.

The molecule `CCCNC(=O)C1Sc2ccccc2-c2[nH]c3ccccc3c21` (stereo not drawn) [Compound 02] came in with an IC50 of 55.9 nM.
